Results: patent US20260130933A1, “PHARMACEUTICAL COMPOSITION FOR PREVENTION OR TREATMENT OF NEPHROPATHY AND/OR DIABETES MELLITUS, COMPRISING ENAVOGLIFLOZIN” (DAEWOONG PHARMACEUTICAL CO., LTD., priority 2022, published 2026)

Assay: Example 2: phase 3 trial, enavogliflozin 0.3 mg vs dapagliflozin 10 mg once a day for 24 weeks added to metformin in patients with type 2 diabetes (same efficacy, exploratory and safety endpoints)
Format: in vivo, human
Method: Subjects who met the inclusion/exclusion criteria were administered a placebo of the clinical trial drug under single-blind (subject blinding) conditions during a 2-week run-in period while continuing to receive metformin. […] The randomized subjects were administered two tablets of the clinical trial drug for each administration group once a day, and then visited the institution at weeks 6, 12, 18, and 24 during the 24-week administration period to conduct efficacy and safety evaluations.
• 1. Change in HbA1c at week 24 after administration of clinical trial drug compared to Visit 2 (randomization)
• 1. Change in HbA1c at each time point of weeks 6, 12, and 18 after administration of clinical trial drug compared to Visit 2 (randomization) • 2. Change in FPG at each time point of weeks 6, 12, 18, and 24 after administration of clinical trial drug compared to Visit 2 (randomization) • 3. Proportion of subjects achieving HbA1c<7% at each time point of weeks 6, 12, 18, and 24 after administration of clinical trial drug • 4. Proportion of subjects achieving HbA1c<6.5% at each time point of weeks 6, 12, 18, and 24 after administration of clinical trial drug • 5. Proportion of subjects achieving therapeutic response (HbA1c change (HbA1c at Visit 2-HbA1c at each evaluation time point)>0.5% or HbA1c<7% at each evaluation time point compared to Visit 2 (randomization)) at each time point of weeks 6, 12, 18 and 24 after administration of clinical trial drug
• 1. Change in fasting c-peptide at each time point of weeks 6, 12, 18, and 24 after administration of clinical trial drug compared to Visit 2 (randomization) • 2. Change in body weight at each time point of weeks 6, 12, 18, and 24 after administration of clinical trial drug compared to Visit 2 (randomization) • 3. Change in fasting lipid concentration (total cholesterol, LDL-C, HDL-C, and triglycerides) at each time point of weeks 6, 12, 18, and 24 after administration of clinical trial drug compared to Visit 2 (randomization) • 4. Changes in systolic or diastolic blood pressure at each time point of weeks 6, 12, 18, and 24 after administration of clinical trial drug compared to Visit 2 (randomization) • 5. Changes in β-cell function and insulin resistance measured by HOMA-β and HOMA-IR at each time point of weeks 6, 12, 18, and 24 after administration of clinical trial drug compared to Visit 2 (randomization) • 6. Changes in renal function-related indicators (UACR, UGCR) measured by UACR at each time point of weeks 6, 12, 18, and 24 after administration of clinical trial drug compared to Visit 2 (randomization) • 7. Changes in obesity-related indicators (adiponectin, leptin) at each time point of weeks 6, 12, 18, and 24 after administration of clinical trial drug compared to Visit 2 (randomization)

[1] = Week 6, PPS, enavogliflozin minus dapagliflozin
[2] = Week 6, mPPS1, enavogliflozin minus dapagliflozin
[3] = Week 6, mPPS2, enavogliflozin minus dapagliflozin
[4] = Week 12, PPS, enavogliflozin minus dapagliflozin

## OC[C@H]1O[C@@H](c2cc(Cc3ccc(C4CC4)cc3)c(Cl)c3c2CCO3)[C@H](O)[C@@H](O)[C@@H]1O [Enavogliflozin, (2S,3R,4R,5S,6R)-2-(7-chloro-6 (4-cyclopropylbenzyl)-2,3-dihydrobenzofuran-4-yl)-6-(hydroxymethyl)tetrahydro-2H-pyran-3,4,5-triol]
[1]
  UGCR change from baseline, LS mean difference: 15.62 mg/mg
  leptin change from baseline, LS mean difference: -0.81 ng/mL
Week 6, mPPS1
  HDL-C change from baseline, ANCOVA LS mean (SE): 1.11(0.58) mg/dL
  HDL-C change from baseline, Mean (SD): 1.18(5.14) mg/dL
  HDL-C change from baseline, Median: 1.00 mg/dL
  HDL-C, Mean (SD): 52.12(11.10) mg/dL
  HDL-C, Median: 51.00 mg/dL
  LDL-C change from baseline, ANCOVA LS mean (SE): −0.09(1.89) mg/dL
  LDL-C change from baseline, Mean (SD): −0.67(15.12) mg/dL
  LDL-C change from baseline, Median: -2.00 mg/dL
  LDL-C, Mean (SD): 85.85(31.51) mg/dL
  LDL-C, Median: 79.00 mg/dL
  Triglycerides change from baseline, ANCOVA LS mean (SE): 8.62(6.88) mg/dL
  Triglycerides change from baseline, Mean (SD): 9.49(73.63) mg/dL
  Triglycerides change from baseline, Median: -3.00 mg/dL
  Triglycerides, Mean (SD): 131.59(114.93) mg/dL
  Triglycerides, Median: 97.00 mg/dL
[2]
  HDL-C change from baseline, LS mean difference: -0.49 mg/dL
  LDL-C change from baseline, LS mean difference: -4.29 mg/dL
  triglycerides change from baseline, LS mean difference: 18.76 mg/dL
Week 6, mPPS2
  Diastolic blood pressure change from baseline, ANCOVA LS mean (SE): −2.75 mmHg
  Diastolic blood pressure change from baseline, Mean (SD): −2.80 mmHg
  Diastolic blood pressure change from baseline, Median: −3.00 mmHg
  Diastolic blood pressure, Mean (SD): 74.25 mmHg
  Diastolic blood pressure, Median: 74.00 mmHg
  Systolic blood pressure change from baseline, ANCOVA LS mean (SE): −3.29(1.02) mmHg
  Systolic blood pressure change from baseline, Mean (SD): −3.28(9.34) mmHg
  Systolic blood pressure change from baseline, Median: −4.00 mmHg
  Systolic blood pressure, Mean (SD): 126.44(14.45) mmHg
  Systolic blood pressure, Median: 128.00 mmHg
[3]
  diastolic blood pressure change from baseline, LS mean difference: −1.28 mmHg
  systolic blood pressure change from baseline, LS mean difference: −0.58 mmHg
Week 12, PPS
  Adiponectin change from baseline, ANCOVA LS mean (SE): 0.84 µg/mL
  Adiponectin change from baseline, Mean (SD): 0.9 µg/mL
  Adiponectin change from baseline, Median: 0.68 µg/mL
  Adiponectin, Mean (SD): 7.87 µg/mL
  Adiponectin, Median: 6.91 µg/mL
  HOMA-IR change from baseline, ANCOVA LS mean (SE): −1.58
  HOMA-IR change from baseline, Mean (SD): −1.36
  HOMA-IR change from baseline, Median: −0.99
  HOMA-IR, Mean (SD): 2.10
  HOMA-IR, Median: 1.61
  HOMA-β change from baseline, ANCOVA LS mean (SE): 5.57
  HOMA-β change from baseline, Mean (SD): 5.59
  HOMA-β change from baseline, Median: 5.10
  HOMA-β, Mean (SD): 51.45
  HOMA-β, Median: 41.60
  Leptin change from baseline, ANCOVA LS mean (SE): -2.64 ng/mL
  Leptin change from baseline, Mean (SD): -2.73 ng/mL
  Leptin change from baseline, Median: -1.45 ng/mL
  Leptin, Mean (SD): 9.56 ng/mL
  Leptin, Median: 6.60 ng/mL
  UACR change from baseline, ANCOVA LS mean (SE): -21.65 g/kg
  UACR change from baseline, Mean (SD): -18550 mg/kg
  UACR change from baseline, Median: -1.40 g/kg
  UACR, Mean (SD): 19800 mg/kg
  UACR, Median: 11.05 g/kg
  UGCR change from baseline, ANCOVA LS mean (SE): 64.70 mg/mg
  UGCR change from baseline, Mean (SD): 63.04 mg/mg
  UGCR change from baseline, Median: 58.91 mg/mg
  UGCR, Mean (SD): 64.53 mg/mg
  UGCR, Median: 62.30 mg/mg
[4]
  HOMA-IR change from baseline, LS mean difference: 0.02
  HOMA-β change from baseline, LS mean difference: −3.17
  UACR change from baseline, LS mean difference: -18.27 g/kg
  UGCR change from baseline, LS mean difference: 19.57 mg/mg
  leptin change from baseline, LS mean difference: 0.07 ng/mL
Week 12, mPPS1
  HDL-C change from baseline, ANCOVA LS mean (SE): 2.31(0.60) mg/dL
  HDL-C change from baseline, Mean (SD): 2.08(5.60) mg/dL
  HDL-C change from baseline, Median: 2.00 mg/dL
